Measurements reported in patent publication US20260365670A1, “EGFR INHIBITORS AND USES THEREOF” (DIZAL (JIANGSU) PHARMACEUTICAL CO., LTD., priority 2022, published 2026).
Like-named read-outs stand apart in the source and are kept apart here.

How the values were obtained:
[1] = molecular target: T1, EGFR[T790M/C797S/d746-750] (Homo sapiens, UniProt P00533, C797S/DEL746-750/T790M); assay: Inhibition of EGFR[T790M/C797S/d746-750] biochemical enzymatic activity (HTRF); details: EGFR T790M-C797S-Del19, 1 mM ATP, 1 h, room temperature, read-out: IC50 (nM) @T790M - C797S - Del19
T1 construct: purchased Carna Bio
T1 sequence (P00533 with tags, fused parts or gaps DEL746-750/T790M/C797S limits assumed): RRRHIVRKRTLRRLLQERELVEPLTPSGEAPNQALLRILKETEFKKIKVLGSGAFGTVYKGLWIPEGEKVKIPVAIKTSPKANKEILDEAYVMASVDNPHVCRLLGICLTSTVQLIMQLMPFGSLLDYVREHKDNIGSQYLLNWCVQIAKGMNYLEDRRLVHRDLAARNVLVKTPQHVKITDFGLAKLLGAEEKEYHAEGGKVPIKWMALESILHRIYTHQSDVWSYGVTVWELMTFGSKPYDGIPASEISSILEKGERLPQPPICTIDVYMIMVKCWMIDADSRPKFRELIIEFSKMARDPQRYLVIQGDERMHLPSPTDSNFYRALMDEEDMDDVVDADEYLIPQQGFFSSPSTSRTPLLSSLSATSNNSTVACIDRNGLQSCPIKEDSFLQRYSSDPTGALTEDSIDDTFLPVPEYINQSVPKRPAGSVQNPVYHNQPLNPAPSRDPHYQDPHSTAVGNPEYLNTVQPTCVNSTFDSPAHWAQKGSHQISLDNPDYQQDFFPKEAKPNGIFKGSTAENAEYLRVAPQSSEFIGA
How it was run: (§1)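 Kinase activity is measured by HTRF detection of biotinylated TK substrate (1 μM) phosphorylation at 1 mM ATP. Incubation lasts 1 h at room temperature before an EDTA stop, and IC50 is fitted with a four-parameter logistic model.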

EGFR wild type = molecular target: T2, EGFR wild type (Homo sapiens, UniProt P00533); assay: Inhibition of EGFR wild type biochemical enzymatic activity (HTRF); details: EGFR WT, 1 mM ATP, 1 h, room temperature, read-out: IC50 (nM) @WT
T2 construct: purchased Carna Bio
How it was run: as §1

[2] = system: Ba/F3 cells expressing EGFR mutations; assay: Cell proliferation assay, Ba/F3 cells expressing EGFR mutations (CellTiter-Glo, 72 hours); type: cell-based; details: CellTiter-Glo
How it was run: (§2)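 GI50 is the concentration giving 50% proliferation inhibition. Growth for this was normalised to a baseline viability reading taken when compound was added, and to DMSO wells. PC-9 (500 cells/well) and mutant-EGFR Ba/F3 (5000 cells/well) are treated after overnight seeding in RPMI1640-based medium.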

EGFR L858R/T790M = molecular target: T3, EGFR L858R/T790M (Homo sapiens, UniProt P00533, L858R/T790M); assay: Inhibition of EGFR L858R/T790M biochemical enzymatic activity (HTRF); details: EGFR L858R-T790M, 1 mM ATP, 1 h, room temperature, read-out: IC50 (nM) @L858R-T790M
T3 construct: purchased Carna Bio
How it was run: as §1

EGFR (d746-750 C797S) = molecular target: T4, EGFR (d746-750 C797S) (Homo sapiens, UniProt P00533, C797S/DEL746-750); assay: Inhibition of EGFR (d746-750 C797S) biochemical enzymatic activity (HTRF); details: EGFR Del19-C797S, 1 mM ATP, 1 h, room temperature, read-out: IC50 (nM) @Del19-C797S
T4 construct: purchased signalchem
T4 sequence (P00533 with tags, fused parts or gaps DEL746-750/C797S limits assumed): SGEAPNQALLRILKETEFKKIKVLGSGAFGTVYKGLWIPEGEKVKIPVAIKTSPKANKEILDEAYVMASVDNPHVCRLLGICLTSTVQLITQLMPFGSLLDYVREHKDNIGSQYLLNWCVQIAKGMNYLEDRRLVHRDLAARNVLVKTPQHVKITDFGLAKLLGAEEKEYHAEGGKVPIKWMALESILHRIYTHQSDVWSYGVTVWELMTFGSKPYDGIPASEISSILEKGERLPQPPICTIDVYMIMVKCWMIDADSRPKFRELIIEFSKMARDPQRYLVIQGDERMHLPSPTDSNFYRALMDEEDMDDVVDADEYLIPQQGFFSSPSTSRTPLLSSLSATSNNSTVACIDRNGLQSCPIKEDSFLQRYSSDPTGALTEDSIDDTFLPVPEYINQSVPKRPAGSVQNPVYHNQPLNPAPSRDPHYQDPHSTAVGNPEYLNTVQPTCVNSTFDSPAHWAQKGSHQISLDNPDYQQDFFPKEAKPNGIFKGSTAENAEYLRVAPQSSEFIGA
How it was run: as §1

A-431 = assay: Cell proliferation GI50, A-431 cells (Table 6); type: cell-based
EGFR[T790M/C797S/L858R] = molecular target: T5, EGFR[T790M/C797S/L858R] (Homo sapiens, UniProt P00533, C797S/L858R/T790M); assay: Inhibition of EGFR[T790M/C797S/L858R] biochemical enzymatic activity (HTRF); details: EGFR T790M-C797S-L858R, 1 mM ATP, 1 h, room temperature, read-out: IC50 (nM) @T790M- C797S - L858R
T5 construct: purchased Carna Bio
T5 sequence (P00533 25-1210 T790M/C797S/L858R): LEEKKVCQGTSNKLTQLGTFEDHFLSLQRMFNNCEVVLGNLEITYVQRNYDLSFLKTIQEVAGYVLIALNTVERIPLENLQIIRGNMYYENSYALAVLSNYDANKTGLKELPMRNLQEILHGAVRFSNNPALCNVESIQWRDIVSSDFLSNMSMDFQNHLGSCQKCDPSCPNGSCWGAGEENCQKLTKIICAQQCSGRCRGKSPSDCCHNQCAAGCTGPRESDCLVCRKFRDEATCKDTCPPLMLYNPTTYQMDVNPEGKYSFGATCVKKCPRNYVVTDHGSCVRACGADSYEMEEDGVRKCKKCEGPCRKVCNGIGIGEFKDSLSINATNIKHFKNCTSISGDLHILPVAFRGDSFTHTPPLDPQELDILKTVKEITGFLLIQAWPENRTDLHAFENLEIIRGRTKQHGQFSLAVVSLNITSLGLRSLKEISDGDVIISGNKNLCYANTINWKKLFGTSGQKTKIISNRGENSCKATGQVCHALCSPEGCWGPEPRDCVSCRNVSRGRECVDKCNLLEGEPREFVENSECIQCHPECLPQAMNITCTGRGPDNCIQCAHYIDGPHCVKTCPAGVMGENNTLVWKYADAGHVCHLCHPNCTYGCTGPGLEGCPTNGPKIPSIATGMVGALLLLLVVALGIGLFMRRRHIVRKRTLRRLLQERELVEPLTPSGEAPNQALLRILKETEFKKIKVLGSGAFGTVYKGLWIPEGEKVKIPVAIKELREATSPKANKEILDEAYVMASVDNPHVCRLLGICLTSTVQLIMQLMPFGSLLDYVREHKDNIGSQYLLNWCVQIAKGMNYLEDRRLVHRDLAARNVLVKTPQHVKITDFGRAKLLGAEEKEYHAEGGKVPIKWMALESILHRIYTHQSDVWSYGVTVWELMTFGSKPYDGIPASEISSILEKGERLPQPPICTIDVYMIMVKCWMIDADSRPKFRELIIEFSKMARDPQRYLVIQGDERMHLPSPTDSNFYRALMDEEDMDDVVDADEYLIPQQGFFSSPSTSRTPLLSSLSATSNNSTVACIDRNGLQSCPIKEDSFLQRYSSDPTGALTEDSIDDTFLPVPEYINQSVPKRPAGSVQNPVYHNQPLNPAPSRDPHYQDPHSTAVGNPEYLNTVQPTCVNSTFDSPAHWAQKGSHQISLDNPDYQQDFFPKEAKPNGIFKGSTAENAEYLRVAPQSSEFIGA
How it was run: as §1

EGFR Exon19Del/T790M = molecular target: T6, EGFR Exon19Del/T790M (Homo sapiens, UniProt P00533, DEL746-750/T790M); assay: Inhibition of EGFR Exon19Del/T790M biochemical enzymatic activity (HTRF); details: EGFR Del19-T790M, 1 mM ATP, 1 h, room temperature, read-out: IC50 (nM) @Del19-T790M
T6 construct: purchased Carna Bio
T6 sequence (P00533 with tags, fused parts or gaps DEL746-750/T790M limits assumed): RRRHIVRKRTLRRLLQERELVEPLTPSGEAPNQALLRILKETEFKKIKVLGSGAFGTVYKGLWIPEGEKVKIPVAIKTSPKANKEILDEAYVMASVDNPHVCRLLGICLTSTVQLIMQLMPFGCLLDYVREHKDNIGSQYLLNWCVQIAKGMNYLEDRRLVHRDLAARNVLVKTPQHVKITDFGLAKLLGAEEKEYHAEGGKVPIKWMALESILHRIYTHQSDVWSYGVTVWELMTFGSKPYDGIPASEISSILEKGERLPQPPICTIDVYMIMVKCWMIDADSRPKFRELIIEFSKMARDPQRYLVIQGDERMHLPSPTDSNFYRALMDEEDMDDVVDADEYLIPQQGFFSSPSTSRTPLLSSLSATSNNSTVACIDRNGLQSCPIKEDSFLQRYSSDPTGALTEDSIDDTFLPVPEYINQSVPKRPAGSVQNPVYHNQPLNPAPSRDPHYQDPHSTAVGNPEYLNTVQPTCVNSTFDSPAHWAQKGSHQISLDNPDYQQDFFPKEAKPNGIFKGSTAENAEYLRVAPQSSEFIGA
How it was run: as §1

EGFR Exon19Del = molecular target: T7, EGFR Exon19Del (Homo sapiens, UniProt P00533, DEL746-750); assay: Inhibition of EGFR Exon19Del biochemical enzymatic activity (HTRF); details: EGFR Del19, 1 mM ATP, 1 h, room temperature, read-out: IC50 @Del19
T7 construct: purchased Carna Bio
T7 sequence (P00533 with tags, fused parts or gaps DEL746-750 limits assumed): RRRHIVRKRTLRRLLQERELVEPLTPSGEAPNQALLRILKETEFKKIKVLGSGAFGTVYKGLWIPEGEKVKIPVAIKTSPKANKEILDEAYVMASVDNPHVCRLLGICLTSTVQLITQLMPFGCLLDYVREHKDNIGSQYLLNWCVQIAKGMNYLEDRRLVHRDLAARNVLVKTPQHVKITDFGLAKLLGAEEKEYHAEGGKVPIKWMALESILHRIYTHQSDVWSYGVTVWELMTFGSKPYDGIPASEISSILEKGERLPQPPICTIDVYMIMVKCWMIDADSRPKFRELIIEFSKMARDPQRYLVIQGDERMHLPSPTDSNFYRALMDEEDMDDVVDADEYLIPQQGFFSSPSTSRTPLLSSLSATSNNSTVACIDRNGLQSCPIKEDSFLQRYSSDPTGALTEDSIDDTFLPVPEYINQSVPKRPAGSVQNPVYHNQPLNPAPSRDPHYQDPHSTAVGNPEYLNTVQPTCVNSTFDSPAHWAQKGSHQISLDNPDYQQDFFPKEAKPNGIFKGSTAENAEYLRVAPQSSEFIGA
How it was run: as §1

PC-9 = assay: Cell proliferation assay, PC-9 cells (CellTiter-Glo, 72 hours); type: cell-based; details: PC9 cells, CellTiter-Glo, read-out: PC9 GI50
How it was run: as §2

EGFR L858R = molecular target: T8, EGFR L858R (Homo sapiens, UniProt P00533, L858R); assay: Inhibition of EGFR L858R biochemical enzymatic activity (HTRF); details: 1 mM ATP, 1 h, room temperature, read-out: IC50 (nM) @L858R
T8 construct: purchased Carna Bio
T8 sequence (P00533 25-1210 L858R): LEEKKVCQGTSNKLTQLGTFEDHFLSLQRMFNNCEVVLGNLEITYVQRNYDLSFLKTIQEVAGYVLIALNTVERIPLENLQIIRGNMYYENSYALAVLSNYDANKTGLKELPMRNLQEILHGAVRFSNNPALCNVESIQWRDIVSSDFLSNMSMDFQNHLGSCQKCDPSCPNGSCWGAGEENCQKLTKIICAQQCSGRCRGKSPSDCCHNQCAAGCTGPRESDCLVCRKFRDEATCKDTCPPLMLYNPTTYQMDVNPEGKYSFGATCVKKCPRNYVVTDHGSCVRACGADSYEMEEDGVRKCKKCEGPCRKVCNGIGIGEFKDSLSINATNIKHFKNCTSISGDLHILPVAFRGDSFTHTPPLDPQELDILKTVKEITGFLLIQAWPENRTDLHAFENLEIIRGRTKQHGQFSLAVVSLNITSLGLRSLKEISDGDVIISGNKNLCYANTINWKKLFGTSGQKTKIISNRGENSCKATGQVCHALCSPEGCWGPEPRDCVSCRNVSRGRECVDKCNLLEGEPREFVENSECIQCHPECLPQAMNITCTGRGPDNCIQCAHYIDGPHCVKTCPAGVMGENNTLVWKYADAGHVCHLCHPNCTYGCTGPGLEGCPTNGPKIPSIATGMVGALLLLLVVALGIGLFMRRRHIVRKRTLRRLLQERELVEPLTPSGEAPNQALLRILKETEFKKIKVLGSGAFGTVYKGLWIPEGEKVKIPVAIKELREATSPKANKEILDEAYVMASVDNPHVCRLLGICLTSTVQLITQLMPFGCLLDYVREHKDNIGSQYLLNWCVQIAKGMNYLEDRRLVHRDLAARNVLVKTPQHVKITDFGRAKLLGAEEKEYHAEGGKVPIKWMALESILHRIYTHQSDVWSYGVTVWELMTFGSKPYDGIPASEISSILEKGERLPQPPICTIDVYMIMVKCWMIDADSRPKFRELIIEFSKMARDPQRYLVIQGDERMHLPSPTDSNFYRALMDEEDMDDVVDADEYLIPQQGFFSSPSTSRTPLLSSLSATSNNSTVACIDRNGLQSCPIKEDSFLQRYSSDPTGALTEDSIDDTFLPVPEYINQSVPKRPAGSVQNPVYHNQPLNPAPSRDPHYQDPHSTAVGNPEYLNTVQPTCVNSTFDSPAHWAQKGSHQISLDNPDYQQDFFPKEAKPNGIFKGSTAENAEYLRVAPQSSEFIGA
How it was run: as §1

EGFR (C797S L858R) = molecular target: T9, EGFR (C797S L858R) (Homo sapiens, UniProt P00533, C797S/L858R); assay: Inhibition of EGFR (C797S L858R) biochemical enzymatic activity (HTRF); details: EGFR L858-C797S, 1 mM ATP, 1 h, room temperature, read-out: IC50 (nM) @L858-C797S
T9 construct: purchased signalchem
How it was run: as §1

[3] = BaF3 cells, EGFR DEL19-C797S, read-out: DEL19-C797S/BaF3 GI50
[4] = BaF3 cells, EGFR DEL19-T790-C797S, read-out: DEL19-T790-C797S/BaF3 GI50
[5] = BaF3 cells, EGFR L858R-C797S, read-out: L858R-C797S/BaF3 GI50
[6] = BaF3 cells, EGFR L858R-T790-C797S, read-out: L858R-T790-C797S/BaF3 GI50
[7] = EGFR DEL19-T790M, read-out: DEL19-T790M GI50
[8] = BaF3 cells, EGFR L858R, read-out: L858R/BaF3 GI50
[9] = BaF3 cells, EGFR L858R-T790M, read-out: L858R-T790M/BaF3 GI50

SMILES | IC50 [1] | IC50 (EGFR wild type) | IC50 (EGFR L858R/T790M) | IC50 (EGFR (d746-750 C797S)) | IC50 (EGFR[T790M/C797S/L858R]) | IC50 (EGFR Exon19Del/T790M) | IC50 (EGFR Exon19Del) | IC50 (EGFR L858R) | IC50 (EGFR (C797S L858R)) | GI50 [2, 3] | GI50 [2, 4] | GI50 [2, 5] | GI50 [2, 6] | GI50 [2, 7] | GI50 (A-431; A-431 cells) | GI50 (PC-9) | GI50 [2, 8] | GI50 [2, 9] | further results
Cn1ncc2c1OCCN1CC3CCC(C3)(C1)n1c(nc3ccc(N4CCOCC4)cc31)NC(=O)c1cc-2c(=O)n(C)c1 (single isomer, unassigned) [Example A62B, 15,21-Dimethyl-5-(morpholin-4-yl)-23-oxa-2,9,11,15,20,21,26-heptaazaheptacyclo[24.4.1.1^{1,28}.1^{13,17}.0^{2,10}.0^{3,8}.0^{18,22}]tritriaconta-3,5,7,9,13,17(33),18(22),19-octaene-12,16-dione] | 2.9 nM | 809 nM | 6.3 nM | 1.4 nM | 4.3 nM | 2.8 nM | 3.5 nM | 45 nM | 19 nM | – | – | – | – | – | – | – | – | – | GI50 ([2]; Mus musculus, BaF3, 72 h, BaF3 cells, EGFR DEL19-C797S, read-out: DEL19-C797S/BaF3 GI50): 0.64 nM; GI50 ([2]; Mus musculus, BaF3, 72 h, BaF3 cells, EGFR DEL19-T790-C797S, read-out: DEL19-T790-C797S/BaF3 GI50): 2.5 nM; GI50 ([2]; Mus musculus, BaF3, 72 h, BaF3 cells, EGFR L858R, read-out: L858R/BaF3 GI50): 3.9 nM; GI50 ([2]; Mus musculus, BaF3, 72 h, BaF3 cells, EGFR L858R-C797S, read-out: L858R-C797S/BaF3 GI50): 5.2 nM; GI50 ([2]; Mus musculus, BaF3, 72 h, BaF3 cells, EGFR L858R-T790-C797S, read-out: L858R-T790-C797S/BaF3 GI50): 5.3 nM; GI50 ([2]; Mus musculus, BaF3, 72 h, BaF3 cells, EGFR L858R-T790M, read-out: L858R-T790M/BaF3 GI50): 8.4 nM; GI50 ([2]; Mus musculus, BaF3, 72 h, EGFR DEL19-T790M, read-out: DEL19-T790M GI50): 2.6 nM; GI50 (A-431; Homo sapiens, A-431, A-431 cells): 1070 nM; GI50 (PC-9; Homo sapiens, PC-9, 72 h): 10 nM
CN(C)C1CN(c2ccc3nc4n(c3c2)C23CCC(CN(CCOc5c(cnn5C)-c5cc(cn(C)c5=O)C(=O)N4)C2)C3)CC1(F)F (single isomer, unassigned) [Example A99B] | 7.7 nM | 3530 nM | 11 nM | 4.6 nM | 10 nM | 8.4 nM | 3.5 nM | 94 nM | 59 nM | 1.2 nM | 15 nM | 11 nM | 4.6 nM | 7.9 nM | 3640 nM | 46 nM | – | – | –
Cn1ncc2c1OCCN1CC3CCC(C3)(C1)n1c(nc3ccc(N4CCC(N5CC(F)C5)C4)cc31)NC(=O)c1cc-2c(=O)n(C)c1 (single isomer, unassigned) [Example A94B1, 5-[3-(3-Fluoroazetidin-1-yl)pyrrolidin-1-yl]-15,21-dimethyl-23-oxa-2,9,11,15,20,21,26-heptaazaheptacyclo[24.4.1.1^{1,28}.1^{13,17}.0^{2,10}.0^{3,8}.0^{18,22}]tritriaconta-3,5,7,9,13,17(33),18(22),19-octaene-12,16-dione] | 5 nM | 148 nM | 8.8 nM | 3.7 nM | 5 nM | 7.1 nM | 10 nM | 27 nM | 15 nM | 0.73 nM | 6.5 nM | 6 nM | 3.9 nM | 3 nM | 1110 nM | 16 nM | 2 nM | 12 nM | –

The next lines start with results.

IC50 [1] | IC50 (EGFR wild type) | IC50 (EGFR L858R/T790M) | IC50 (EGFR (d746-750 C797S)) | IC50 (EGFR[T790M/C797S/L858R]) | IC50 (EGFR Exon19Del/T790M) | IC50 (EGFR Exon19Del) | IC50 (EGFR L858R) | IC50 (EGFR (C797S L858R)) | GI50 [2, 3] | GI50 [2, 4] | GI50 [2, 5] | GI50 [2, 6] | GI50 [2, 7] | GI50 (A-431; A-431 cells) | GI50 (PC-9) | GI50 [2, 8] | GI50 [2, 9] | SMILES | further results
1.8 nM | 8.9 nM | 1.8 nM | 0.95 nM | 1.8 nM | 1.8 nM | 1.2 nM | 2.9 nM | 3.1 nM | 0.66 nM | 1.3 nM | 2.8 nM | 1.3 nM | 1.8 nM | 284 nM | 3.5 nM | 2.1 nM | 9.6 nM | CN1CC2CN(c3ccc4nc5n(c4c3)C34CCC(CN(CCOc6c(cnn6C)-c6cc(cn(C)c6=O)C(=O)N5)C3)C4)CC2C1 (single isomer, unassigned) [Example A68B] | –
2820 nM | > 5000 nM | > 5000 nM | 446 nM | > 5000 nM | > 5000 nM | 594 nM | 1750 nM | > 5000 nM | 113 nM | 322 nM | 143 nM | 316 nM | 355 nM | 2500 nM | 418 nM | 268 nM | 392 nM | CN1CCN(C2CCN(c3ccc4nc5n(c4c3)C34CCC(CN(CCOc6c(cnn6C)-c6cc(cn(C)c6=O)C(=O)N5)C3)C4)CC2)CC1 (single isomer, unassigned) [Example A106A] | –
